The results in this text go back to article PMC9529094, “Identification of natural cytochalasins as leads for neglected tropical diseases drug discovery” (PLoS ONE, 2022).

Like-named read-outs stand apart in the source and are kept apart here.

The subject of data set [1] is L. infantum promastigotes. Briefly: Leishmanicidal assay using L. infantum promastigotes (resazurin). It counts as cell-based, Leishmania infantum. The note with it: 20–2.5 μM, 24 h, Fig 2C. Here is the method: Promastigotes of L. infantum (1x10^6 parasites/well) were distributed in 96-well plates, and the test compounds (cytochalasins A-D) were added at concentrations of 20–2.5 μM. The plates were incubated under the same conditions as previously described for 24 h. The leishmanicidal activity was determined by adding 20 μL of resazurin (Sigma-Aldrich), and the plates were incubated for 4 h. The absorbance was measured at 536 and 588 nm in an automated SpectraMax Gemini microplate reader, and the data were analysed using GraphPad Prism version 8.0 for the CC50 value calculation. The percentage of nonviable parasites was determined and compared to the negative control wells.

The next data set has as its system T. cruzi. Briefly: Screening of natural product collection against T. cruzi (cell infection assay). The format is cell-based. The note with it: Trypanosoma cruzi; compound concentration of 50 μM. How it is done:
A screening of a natural product collection was performed by using cell assays for infection with Trypanosoma cruzi and Leishmania infantum. The collection includes 320 compounds from the metabolic classes terpenes, alkaloids, peptides and amides that were isolated by plant species or endophytic fungi. For further evaluation in this study, cytochalasins A-D (CAS numbers: CytA: 14110-64-6, CytB: 14930-96-2, CytC: 22144-76-9, CytD: 22144-77-0) were obtained from Sigma-Aldrich (St. Louis, MO, USA). The purity of these compounds was ≥97%. The stock solution of the compounds was prepared in 100% DMSO (dimethyl sulfoxide—Sigma-Aldrich).

A further data set is described as follows: in vitro. It counts as in vitro ADME. Conditions: pH 7.4, 0.5 μM compound, 0.25 mg/mL microsomes. How it is done: The metabolic stability of the cytochalasins was evaluated in human pooled liver human microsomes (20 mg/ml, GIBCO) and pooled liver CD1 mouse microsomes (20 mg/ml, GIBCO). Test cytochalasins were prepared at a concentration of 0.5 μM and incubated with 0.25 mg/mL liver microsomes at pH 7.4), and the DMSO concentration was lower than 1%. The reaction was started by adding the cofactor NADPH at […]. Samples were taken at time point 0 (immediately following the addition of the co-factor), 5, 10, 20, 30 and 60 minutes. The reaction was stopped by adding quench solution containing acetonitrile:methanol (1:1) (internal standard tolbutamide at 50 nM). The samples were centrifuged (3500 rpm/30 min.) to obtain the pellet of precipitated microsomal protein. The supernatant fractions were quantified by LC-MS/MS (liquid chromatography-tandem mass spectrometry) Prominence UFLC (Shimadzu Corporation, Kyoto, Japan) and interfaced with an LCMS-8045 triple quadrupole mass spectrometer (Shimadzu Corporation, Kyoto, Japan) with an electrospray ionization source (ESI). The peak area ratios (analyte/internal standard) were converted to the % remaining using the area ratio at time 0 as 100%. The half-life (t1/2 = ln(2)/k) in minutes and intrinsic clearance (Clint = k x 1000/(0.25)) in μL/min/mg were calculated using a nonlinear regression from the % remaining versus the incubation time. From this plot, the slope (k) was determined. The chromatogram for analysis was obtained on a Supelco Ascentis express C18 column (3 cm x 2.1 mm, 5 μM). The mobile phases consisted of water + 0.1% formic acid (A) and acetonitrile + 0.1% formic acid (B). The mobile phase was eluted in binary gradient mode, and the gradient was as follows: 0 min, 95% A; 0.05 mins. 95% A; 0.3 mins: 2% A; 0.7 mins: 2% A; 0.8 mins: 95% A; 1.15 mins 95% A; and 2.0 mins 95% A. The run time was 2 minutes, the sample injection volume was 10 μL, and the flow rate was 0.7 mL/min.

Setting [2] is: CD1, mouse, read-out: Mouse liver microsome (MsLM) CLint(mic).
[3] abbreviates: human, read-out: Human liver microsome (HLM) CLint(mic).

The inhibition is how much of the control response was suppressed. Higher therefore signals a strong effect. Regarding `C=C1[C@@H](C)[C@H]2[C@H](Cc3ccccc3)NC(=O)[C@]23OC(=O)/C=C/C(=O)CCC[C@@H](C)C/C=C/[C@H]3[C@@H]1O` [Cytochalasin A], the “toxicity to L. infantum promastigote parasites” value in data set [1] is given as “toxic”. Further, in the data set on T. cruzi, the inhibition at 50 µM amounted to 99.7%. The values for the microsomal CLint in “in vitro” (setting [2]) and in the data set “in vitro” (setting [3]) were 167 ± 9.12 µL/min/mg and 7.86 ± 2.05 µL/min/mg, respectively.

In turn, `C=C1[C@@H](C)[C@H]2[C@H](Cc3ccccc3)NC(=O)[C@]23OC(=O)/C=C/[C@H](O)CCC[C@@H](C)C/C=C/[C@H]3[C@@H]1O` [Cytochalasin B] came in with an inhibition at 50 µM with T. cruzi of 79.4%. Moreover, the microsomal CLint in the data set “in vitro” (setting [2]) was determined as 62.9 µL/min/mg; in the data set “in vitro” (setting [3]) it was 217 ± 6.05 µL/min/mg.

On to `CC(=O)OC1C=CC(C)(O)C(=O)C(C)CC=CC2C(O)C(C)=C(C)C3C(Cc4ccccc4)NC(=O)C123` (stereo not drawn) [Cytochalasin C], for which the “toxicity to L. infantum promastigote parasites” value in data set [1] is “toxic”. In the data set on T. cruzi, testing at 50 µM gave an inhibition of 72.8%. Moreover, the microsomal CLint in the data set “in vitro” (setting [3]) was 144 ± 15.8 µL/min/mg.

`C=C1[C@@H](C)[C@H]2[C@H](Cc3ccccc3)NC(=O)[C@]23[C@H](OC(C)=O)/C=C/[C@@](C)(O)C(=O)[C@@H](C)C/C=C/[C@H]3[C@@H]1O` [Cytochalasin D]: the inhibition at 50 µM with T. cruzi was determined as 69.5%. Also, the microsomal CLint in “in vitro” (setting [2]) worked out at 163 ± 22.4 µL/min/mg.
